From patent publication US20180369264A1, “COMBINATION OF A CARDIAC STEROID AND AN AKT INHIBITOR FOR THE TREATMENT OF CARDIOVASCULAR DISEASES AND DISORDERS” (YISSUM RESEARCH DEVELOPMENT COMPANY OF THE HEBREW …, priority 2015, published 2018)

System: zebrafish accordion mutant (acc) larvae heart
Assay: In-vivo heart contractility measurements in zebrafish acc mutant larvae
Set-up: species or system zebrafish (Danio rerio)
Conditions: 1 nM, 90 minutes
Procedure: Ouabain, bufalin, digoxin, acetylcholine, carbachol, […] (pp2) and U0126 (1,4-diamino-2,3-dicyano-1,4-bis(2-aminophenylthio)butadiene) were purchased from Sigma-Aldrich Inc., Israel. The compounds were dissolved in egg water (0.3 g Instant Ocean Salt in distilled water) to a final selected concentration, as specified in the following examples. The larvae in 20 μL of E3 medium were transferred to the egg water solution containing one or two of the above specified drugs of choice, and incubated for 60-90 minutes at 28° C.
Filming process Zebrafish larvae heart imaging was performed using an Olympus CKX41 (Japan) […] microscope with ×10 or ×20 magnification, and integrated incandescent illumination. A FastCam imi-tech (Korea) high speed digital camera with 640×480 pixel gray scale image sensor was mounted on the microscope, using ImCam software (IMI Technology, Co. Ltd) for high speed video recording. The larvae were anesthetized by placing them in filming/anesthetizing medium. Each larva in 0.5 ml filming/anesthetizing medium was transferred to a 96-well tissue culture plate at room temperature and sequential images of the heart were obtained, with the larvae positioned on their side, at 80 fps during 10 seconds with a shutter speed of 0.016 seconds.
Physiological parameters of cardiovascular performance, as indicated hereinbelow, were evaluated in the zebrafish larvae. […] Sequential still frames were analyzed to capture ventricular end-systole and end-diastole images. […] The Ejection Fraction (EF) was determined by an independent estimate of ventricular volume. […] EF was then calculated according to the equation: EF=(EDV-ESV)/EDV*100. Heart rate (HR) was measured in beats per minute. Cardiac output (CO) was calculated according to the equation: CO=(EDV-ESV)*HR. A minimum of five sequential pairs of systolic and diastolic cycles were measured and analyzed in 9-12 larvae for each treatment.

In the case of `C[C@@H]1O[C@@H](O[C@H]2C[C@@H](O)[C@]3(CO)[C@H]4[C@H](O)C[C@]5(C)[C@@H](C6=CC(=O)OC6)CC[C@]5(O)[C@@H]4CC[C@]3(O)C2)[C@H](O)[C@H](O)[C@H]1O` [ouabain, 3-(alpha-L-Rhamnopyranosyloxy)-1beta,5beta,11alpha,14,19-pentahydroxy-5beta-card-20(22)-enolide], the “effect on heart contractility” value is reported as “no effect on heart contractility”.
